Measured values taken from PubChem BioAssay (NCI).
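96-well plates; 48 h exposure; 5 concentrations. Endpoints by linear interpolation between flanking doses. Not reached: highest tested concentration assigned. GI50 is the concentration that inhibits growth by half. TGI: concentration producing complete growth inhibition.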

Legend:
Test in all cases: NCI anticancer screen, dose series, 48 h
[1] = system: 786-0 renal
[2] = system: A549 NSCLC
[3] = system: IGROV1 ovarian
[4] = system: M14 melanoma
[5] = system: NCI-H23 lung
[6] = system: SF-295 CNS
[7] = system: SK-MEL-5 melanoma
[8] = system: SK-OV-3 ovarian
[9] = system: SR leukemia
[10] = system: HL-60(TB) leukemia

## CC/C(=C\c1ccc(OC)cc1)c1ccc(OC)cc1
[1]
  TGI: > 100 µM
[2]
  TGI: > 100 µM
[3]
  TGI: > 100 µM
[4]
  TGI: > 100 µM
[5]
  TGI: > 100 µM
[6]
  TGI: > 100 µM
[7]
  TGI: 80.7 µM
[8]
  TGI: > 100 µM

## O=C(CCC1CCCCN1)Nc1ccc2c(c1)C(=O)c1ccc(NC(=O)CCN3CCCCC3)cc1C2=O (stereo not given)
[2]
  TGI: 33.4 µM
[3]
  TGI: 31.2 µM
[4]
  TGI: 2.8 µM
[5]
  TGI: 5.27 µM
[6]
  TGI: 20.8 µM
[7]
  TGI: 3.27 µM
[8]
  TGI: 70.1 µM
[9]
  TGI: > 100 µM

## CCOC(C)OC1CC(n2cc(C)c(=O)[nH]c2=O)OC1CO (stereo not given)
[2]
  TGI: > 100 µM
[10]
  TGI: > 100 µM
[3]
  TGI: > 100 µM
[4]
  TGI: > 100 µM
[5]
  TGI: > 100 µM
[6]
  TGI: > 100 µM
[8]
  TGI: > 100 µM
[9]
  TGI: > 100 µM

## C(=C/c1nc2ccccc2o1)/c1ccc2c(c1)OCO2
[2]
  TGI: > 81.4 µM
[10]
  TGI: > 96.5 µM
[3]
  TGI: > 83 µM
[5]
  TGI: > 100 µM
[6]
  TGI: 23.1 µM
[7]
  TGI: 56.6 µM
[8]
  TGI: 53.1 µM

## CC1C2(C)OCC(C#N)(C(=N)O2)C1(C#N)C#N (stereo not given)
[1]
  TGI: 55.3 µM
[2]
  TGI: > 100 µM
[10]
  TGI: 38.2 µM
[3]
  TGI: > 100 µM
[4]
  TGI: 39.2 µM
[5]
  TGI: 86.9 µM
[6]
  TGI: > 100 µM
[7]
  TGI: 23.4 µM
[8]
  TGI: > 100 µM

## COC(=O)C1c2cc3c(c(O)c2C(O)CC1(C)O)C(=O)c1c(O)cc2c(c1C3=O)OC1OC2(C)C(O)C(N(C)C)C1O (stereo not given)
[10]
  TGI: > 24.9 µM
[3]
  TGI: > 39.7 µM
[6]
  TGI: > 100 µM
[8]
  TGI: > 27.8 µM
[9]
  TGI: > 100 µM

## CCn1c2ccccc2c2cc(Nc3cc(C)[nH]c(=O)n3)ccc21
[1]
  TGI: > 100 µM
[2]
  TGI: > 100 µM
[4]
  TGI: > 100 µM
[5]
  TGI: > 100 µM
[6]
  TGI: > 100 µM
[8]
  TGI: > 100 µM

## Cc1ccc(S[C@@H](C)[C@@](O)(C(N)=O)c2ccccc2)cc1
[1]
  TGI: > 100 µM
[2]
  TGI: > 100 µM
[10]
  TGI: > 100 µM
[3]
  TGI: 15.5 µM
[4]
  TGI: > 100 µM
[5]
  TGI: > 100 µM
[6]
  TGI: 41.9 µM
[7]
  TGI: 81.1 µM
[8]
  TGI: > 100 µM

## O=C1C(c2c(O)[nH]c3ccc(S(=O)(=O)NCCO)cc23)=Nc2ccccc21
[1]
  TGI: 28.9 µM
[2]
  TGI: > 100 µM
[3]
  TGI: > 100 µM
[4]
  TGI: > 100 µM
[5]
  TGI: > 100 µM
[6]
  TGI: > 100 µM
[7]
  TGI: > 100 µM
[8]
  TGI: 20.3 µM
[9]
  TGI: 21.6 µM

## CC1OC(=O)C(C(C)C)NC(=O)C(C(C)C)OC(=O)C(C(C)C)NC(=O)C(C)OC(=O)C(C(C)C)NC(=O)C(C(C)C)OC(=O)C(C(C)C)NC(=O)C(C)OC(=O)C(C(C)C)NC(=O)C(C(C)C)OC(=O)C(C(C)C)NC1=O (stereo not given)
[2]
  TGI: 2.98 µM
[10]
  GI50: < 0.0001 µM
[3]
  TGI: 5.34 µM
[5]
  GI50: < 0.0001 µM
  TGI: 0.0503 µM
[6]
  GI50: < 0.0001 µM
[8]
  TGI: 0.225 µM

## CCOc1cc2c(cc1O)C(N)C[C@@H]1[C@@H]2CC[C@]2(C)[C@@H](O)CC[C@@H]12 (stereo not given in full)
[1]
  TGI: > 100 µM
[10]
  TGI: 46.5 µM
[3]
  TGI: > 100 µM
[4]
  TGI: 98.4 µM
[5]
  TGI: > 100 µM
[6]
  TGI: > 100 µM
[7]
  TGI: > 100 µM
[9]
  TGI: 63 µM

## C=C1C(=O)OC2C3OC(C)(CCC(O)C3COC(C)=O)CC(OC(=O)/C(=C/C)COC(C)=O)C12 (stereo not given)
[1]
  TGI: 0.394 µM
[2]
  TGI: 22.1 µM
[3]
  TGI: 2.85 µM
[4]
  TGI: 1.01 µM
[5]
  TGI: 2.93 µM
[6]
  TGI: 22.3 µM
[7]
  TGI: 2.65 µM
[8]
  TGI: 19.6 µM
[9]
  TGI: 0.713 µM

## Nc1cc2c3c(cccc3c1)C(=O)N(c1ccc(OCCN3CCCC3)cc1)C2=O
[1]
  TGI: 31.5 µM
[2]
  TGI: 50.8 µM
[3]
  TGI: 36.4 µM
[4]
  TGI: 51.2 µM
[5]
  TGI: 28.2 µM
[6]
  TGI: 27.4 µM
[7]
  TGI: 36.9 µM
[8]
  TGI: 42 µM
[9]
  TGI: 50.9 µM

## COc1ccc(CNc2nc3ccccc3nc2C(=O)O)cc1
[1]
  TGI: > 100 µM
[2]
  TGI: > 100 µM
[10]
  TGI: > 100 µM
[3]
  TGI: > 100 µM
[4]
  TGI: > 100 µM
[5]
  TGI: > 100 µM
[6]
  TGI: > 100 µM
[7]
  TGI: > 100 µM
[9]
  TGI: > 100 µM

## CC(=O)OCC1OC(n2c(-c3ccccc3)c(N=Nc3ccc(C)cc3)c(C)c(C#N)c2=S)C(OC(C)=O)C(OC(C)=O)C1OC(C)=O (stereo not given)
[1]
  TGI: 12.5 µM
[2]
  TGI: 47 µM
[10]
  TGI: > 100 µM
[4]
  TGI: 16.8 µM
[5]
  TGI: 42.1 µM
[6]
  TGI: 97.2 µM
[9]
  TGI: > 100 µM

## CCCCCCCCCCCCO[P+](=O)OCCCCCCCCCCCC
[1]
  TGI: > 100 µM
[2]
  TGI: > 100 µM
[10]
  TGI: > 100 µM
[3]
  TGI: > 100 µM
[4]
  TGI: > 100 µM
[5]
  TGI: > 100 µM
[6]
  TGI: > 100 µM
[7]
  TGI: > 100 µM
[8]
  TGI: > 100 µM

## CCOC(=O)C(C(=O)COC(C)(C)C)[C@@H]1C=C[C@H](OC(C)=O)C1 (stereo not given in full)
[1]
  TGI: > 100 µM
[2]
  TGI: > 100 µM
[4]
  TGI: > 100 µM
[5]
  TGI: > 100 µM
[6]
  TGI: > 100 µM
[8]
  TGI: > 100 µM

## C(#Cc1ccccc1)SC1=C(c2ccccc2)S/C(=C(\SC#Cc2ccccc2)c2ccccc2)S1
[1]
  TGI: > 100 µM
[2]
  TGI: > 100 µM
[3]
  TGI: > 100 µM
[4]
  TGI: > 100 µM
[5]
  TGI: > 100 µM
[6]
  TGI: > 100 µM
[7]
  TGI: > 100 µM
[8]
  TGI: > 100 µM
[9]
  TGI: > 100 µM

## CCCCCCCCCCCCOP(=O)(O)OP(=O)(O)OCC1OC(n2cc(C)c(=O)[nH]c2=O)CC1O (stereo not given)
[1]
  TGI: > 100 µM
[2]
  TGI: > 100 µM
[10]
  TGI: > 100 µM
[3]
  TGI: > 100 µM
[4]
  TGI: > 100 µM
[5]
  TGI: > 100 µM
[6]
  TGI: > 100 µM
[7]
  TGI: > 100 µM
[8]
  TGI: > 100 µM

## COc1ccc2c(c1)CCC/C2=N\NS(=O)(=O)c1c(C)cc(C)cc1C
[1]
  TGI: 37.8 µM
[2]
  TGI: > 100 µM
[3]
  TGI: 55 µM
[4]
  TGI: > 100 µM
[5]
  TGI: 72.4 µM
[6]
  TGI: 94.6 µM
[7]
  TGI: 33.4 µM
[9]
  TGI: 49.5 µM

## Cc1ccc(/C=C2/N=C(N/N=C\c3ccccc3)NC2=O)cc1
[1]
  TGI: 55.6 µM
[2]
  TGI: > 100 µM
[3]
  TGI: > 100 µM
[4]
  TGI: 85.7 µM
[5]
  TGI: > 100 µM
[6]
  TGI: > 100 µM
[7]
  TGI: > 100 µM
[8]
  TGI: > 100 µM
[9]
  TGI: > 100 µM

## NS(=O)(=O)c1ccc(N=Nc2ccc(O)c(C(=O)O)c2)cc1
[1]
  TGI: > 100 µM
[2]
  TGI: > 100 µM
[10]
  TGI: > 100 µM
[3]
  TGI: > 100 µM
[4]
  TGI: > 100 µM
[5]
  TGI: > 100 µM
[6]
  TGI: > 100 µM
[7]
  TGI: > 100 µM
[8]
  TGI: > 100 µM

## COc1ccc(C2=NC(c3ccc(Cl)cc3)C(c3ccc(Cl)cc3)N2C(=O)N2CCNC(=O)C2)c(OC(C)C)c1 (stereo not given)
[2]
  GI50: 2.22 µM
  TGI: 5.61 µM
[10]
  GI50: 3.62 µM
  TGI: > 10 µM
[3]
  GI50: 1.76 µM
  TGI: 3.29 µM
[4]
  GI50: 1.84 µM
  TGI: 3.31 µM
[5]
  GI50: 1.83 µM
  TGI: 3.45 µM
[6]
  GI50: 1.81 µM
  TGI: 3.38 µM
[7]
  GI50: 1.76 µM
  TGI: 3.39 µM
[8]
  GI50: 2.27 µM
  TGI: 4.31 µM
[9]
  GI50: 2.33 µM
  TGI: 5.89 µM
